In paper PMC11847541, “Liver fatty acid binding protein FABP1 transfers substrates to cytochrome P450 4A11 for catalysis” (The Journal of Biological Chemistry, 2025):

Target: T1, P450 4A11 (Homo sapiens, UniProt Q02928)
T1 sequence (Q02928 5-519): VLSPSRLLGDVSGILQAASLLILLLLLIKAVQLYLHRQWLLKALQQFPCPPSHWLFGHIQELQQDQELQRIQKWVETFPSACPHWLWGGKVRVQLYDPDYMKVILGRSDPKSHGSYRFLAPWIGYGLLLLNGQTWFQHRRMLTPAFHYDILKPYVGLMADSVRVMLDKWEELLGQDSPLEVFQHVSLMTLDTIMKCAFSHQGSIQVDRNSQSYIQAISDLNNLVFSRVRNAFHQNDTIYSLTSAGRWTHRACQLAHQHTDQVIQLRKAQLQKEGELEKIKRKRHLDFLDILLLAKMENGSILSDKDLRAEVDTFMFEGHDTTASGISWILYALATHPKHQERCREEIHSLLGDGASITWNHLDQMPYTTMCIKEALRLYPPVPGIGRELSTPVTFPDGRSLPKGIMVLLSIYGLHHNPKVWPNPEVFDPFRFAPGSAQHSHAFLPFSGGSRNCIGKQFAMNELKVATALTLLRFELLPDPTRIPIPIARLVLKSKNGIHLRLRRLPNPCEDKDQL
Type: biochemical
Design: made in house; host or cells: E. coli
Description: To differentiate between the two possible roles of FABP1 in P450 catalysis (competitive binder versus direct transfer, Fig. 2), two catalytic experiments testing palmitate oxidation were designed: one in which the FABP1 concentration was varied with a fixed concentration of palmitate (Fig. 12A) and another performed vice versa (Fig. 12B).
Dashed lines are the predicted kinetic data from the free ligand model (blue) and the direct transfer model (red) using the experimentally determined rate constants (Table 1, Fig. 2). A reaction performed without the addition of FABP1 (open circles) was also fit to a modeled curve (black dashed line), which utilizes only the rate constants determined for P450 4A11. Error bars reflect standard deviation of two replicate values, that is, range (if not visible, the deviation is too small to be represented). FABP1, fatty acid binding protein.
Potassium phosphate buffer (100 mM, pH 7.4), DTT (1 mM, added as described earlier ([44], [56])), and [1-^14C]-palmitate (5 μM, 20 mCi/mmol [added from a 1 mM stock in C2H5OH]) were added, and the mixture was split between vials. Just prior to the reaction preincubation, FABP1 (0–5 μM) was added (diluted so the same volume of FABP1 stock solutions were added to each sample). The mixtures were preincubated (5 min, 37 °C), and P450 4A11 activity was initiated with an NADPH-regenerating system ([78]), the addition of which brought reactions to their final volume (0.5 ml). Reactions (5 min) were quenched via the addition of CH2Cl2 (5 ml), were mixed with a vortex device, and were placed on ice. After the completion of the time course, the samples were centrifuged (1000g, 5 min, 23 °C) to separate layers, the organic layer (4 ml) was transferred to fresh vials, and the solvent was removed under a stream of N2. […] The column eluate was mixed (1:2, v/v) with FlowLogic U scintillation cocktail (LabLogic), and radioactivity (^14C) was detected using a β-RAM Model 5 radioflow detector (IN/US; LabLogic). Product was quantitated on the basis of its ^14C peak area relative to the summed radioactivity of the substrate and product.
To determine the reaction rate versus palmitate concentration, a similar reconstitution premixture was prepared with the modification that FABP1 (5 μM) was used instead of palmitate, and the concentrations of P450 4A11 and NADPH–P450 reductase were increased to 0.3 μM and 0.6 μM, respectively. […] The residue was dissolved in 50 μl C2H5OH, transferred to autosampler vials, and analyzed on LC–MS as described earlier (see “Quantitation of ligand-bound FABP1”) but set to operate in the negative-ion mode with the gradient mobile phase modified to (all % v/v: 0 min, 65% B; 0.5 min, 65% B; 5 min, 100% B; 7.5 min, 100% B; 7.6 min, 65% B; 9 min, 65% B). […]

Molecule | reduction of enzyme activity [%] | maximal observed rate of reaction (- cytochrome b5) [min⁻¹] | kcat estimate (- cytochrome b5, P450 4A11 0.05 µM) [s⁻¹] | maximum measurable rate of reaction (k2) (palmitate oxidation, without cytochrome b5, did not saturate) [s⁻¹]
FABP1: delipidated recombinant liver fatty acid binding protein with C-terminal hexahistidine tag | ≤ 50 |  |  | 
CCCCCCCCCCCCCCCC(=O)O [Palmitate (C16), palmitate] |  | 12 ± 1 | 0.483 ± 0.05 | 0.2
